Assay: Rheology: max tack force and adhesion of 16% F127 gels with additives
Format: physicochemical
Settings: 0.2-1% glycerin added to 16% w/v F127, 37° C., vs no additive
Procedure: An Anton Paar cone and plate rheometer (model MCR 302) with PP25 probe were used to measure the max tack force and the adhesion. The probe was placed in contact with the sample, and then moved at a controlled rate vertically away from the sample to measure the normal force. The peak force on the curve is considered the max tack force, while the adhesion is the area under the force curve. Samples (200 μL) were transferred to the rheometer sample holder using a Drummond Wiretrol 200 μL wire plunger pipette. The samples were equilibrated between the probe and sample holder with a 1 mm gap for 60 s at the specified temperature. A total of 100 points were measured at 60 s intervals with ramp linear mode (initial was set as −0.005 mm/s and the final was set as −0.5 mm/s). If not specified, n=3-6 per each sample group were measured and each sample were prepared individually. The final data was exported from the Antron Parr RheoCompass. The max tack force and the adhesion were calculated with GraphPad Prism 9. For the temperature ramp viscosity experiment, the loading gap was set to 0.3 mm. […] The raw data with temperature (° C.) and viscosity (mPa*s) measurements were exported from the Anton Parr RheoCompass software and analyzed/plotted with GraphPad Prism 9. […]

## OCC(O)CO [glycerin]
  adhesion of the F127 gels: no measurable effect
  max tack force of the F127 gels: no measurable effect

Reference: US20250177291A1, “HYPOTONIC GEL-FORMING FORMULATIONS WITH ENHANCED RHEOLOGICAL PROPERTIES” (The Johns Hopkins University, priority 2021, published 2025)
